Reference: the NIST ThermoML archive (doi:10.1021/je700096m)

Experiment: xn = mol fraction of the nth substance listed
Conditions: 298.15 K, Liquid

CCCCCl [1-chlorobutane] + CC(=O)N(C)C
mass density [kg/m3]
Conditions | x2 = 0.0967 | x2 = 0.2105 | x2 = 0.2984 | x2 = 0.4019 | x2 = 0.499 | x2 = 0.5947 | x2 = 0.6992 | x2 = 0.7997 | x2 = 0.9015
100 kPa | 885.6 | 891.8 | 896.7 | 902.5 | 908.1 | 913.3 | 919.2 | 924.7 | 930.4
2000 kPa | 887.5 | 893.6 | 898.4 | 904.1 | 909.6 | 914.8 | 920.6 | 925.9 | 931.6
4000 kPa | 889.5 | 895.5 | 900.1 | 905.8 | 911.2 | 916.2 | 922.1 | 927.3 | 932.9
6000 kPa | 891.4 | 897.2 | 901.9 | 907.45 | 912.7 | 917.8 | 923.4 | 928.7 | 934.1
8000 kPa | 893.3 | 899.1 | 903.6 | 909 | 914.2 | 919.2 | 924.8 | 930 | 935.5
10000 kPa | 895.3 | 900.9 | 905.3 | 910.9 | 915.8 | 920.7 | 926.2 | 931.3 | 936.7
11900 kPa | – | – | – | 912.3 | – | – | – | – | –
12000 kPa | 897.1 | 902.6 | 907 | – | 917.3 | 922.1 | 927.6 | 932.6 | 937.9
13900 kPa | – | – | – | 913.9 | – | – | – | – | –
14000 kPa | 898.9 | 904.4 | 908.6 | – | 918.8 | 923.5 | 929 | 933.8 | 939
15900 kPa | – | – | – | – | – | – | – | 935.1 | –
16000 kPa | 900.6 | 906.1 | 910.2 | 915.4 | 920.2 | 924.8 | 930.3 | – | 940.3
17900 kPa | 902.3 | 907.6 | – | – | – | – | – | 936.2 | –
18000 kPa | – | – | 911.7 | 916.9 | 921.6 | 926.2 | 931.5 | – | 941.5
20000 kPa | 904.2 | 909.3 | – | – | – | – | 932.9 | 937.7 | 942.6
20100 kPa | – | – | 913.5 | 918.5 | 923.1 | 927.6 | – | – | –

CCCCCCCCCl [1-chlorooctane] + CN(C)C=O
mass density [kg/m3]
Conditions | x2 = 0.1042 | x2 = 0.2009 | x2 = 0.2669 | x2 = 0.4023 | x2 = 0.4992 | x2 = 0.6035 | x2 = 0.6982 | x2 = 0.8002 | x2 = 0.9001
100 kPa | 871.7 | 875.3 | 877.9 | 884.2 | 889.7 | 896.8 | 904.7 | 914.9 | 927.7
2000 kPa | 873.1 | 876.7 | 879.4 | 885.6 | 891 | 898.2 | 906 | 916.1 | 928.8
4000 kPa | 874.7 | 878.2 | 880.8 | 887.1 | 892.5 | 899.6 | 907.5 | 917.4 | 930.2
6000 kPa | 876.1 | 879.7 | 882.3 | 888.5 | 893.9 | 900.9 | 908.8 | 918.8 | 931.4
7900 kPa | 877.6 | – | – | – | – | – | – | – | –
8000 kPa | – | 881.1 | 883.7 | 889.9 | 895.3 | 902.3 | 910.1 | 920.1 | 932.6
9900 kPa | – | – | – | – | – | – | – | 921.4 | –
10000 kPa | 879.1 | 882.7 | 885.2 | 891.4 | 896.8 | 903.7 | 911.4 | – | 933.9
12000 kPa | 880.6 | 884.1 | 886.6 | 892.8 | 898.1 | 905 | 912.7 | 922.7 | 935.1
13900 kPa | – | 885.4 | – | – | – | – | – | – | –
14000 kPa | 882 | – | 887.9 | 894.1 | 899.4 | 906.3 | 914 | 924 | 936.3
15900 kPa | 883.2 | – | 889.2 | – | 900.7 | – | – | – | –
16000 kPa | – | 886.4 | – | 895.4 | – | 907.7 | 915.4 | 925 | 937.6
17900 kPa | – | – | – | 896.7 | – | – | – | – | 938.6
18000 kPa | 884.6 | 888.2 | 890.6 | – | 902 | 908.9 | 916.5 | 926.3 | –
20000 kPa | 886 | – | 891.8 | 898 | 903.3 | 910.3 | 917.7 | 927.5 | 939.8
20100 kPa | – | 889.6 | – | – | – | – | – | – | –
